# Measurements from US20260272964A1, “PENTAGALLOYL GLUCOSE DERIVED FROM SCHINUS PLANTS AND METHODS OF USE” (Emory University, priority 2020, published 2026).
# “And” between values parts separate entries of the source, which are not always exact repeats. Equal values may be shown once. Read-outs that look alike come from different tables or passages of the source.
# Experiments:
# [1] = system: Enterococcus faecium; assay: Growth inhibition of ESKAPE pathogens; type: cell-based
# Protocol: (§1) PGG was also tested against a panel of other ESKAPE pathogens: Enterococcus faecium, Staphylococcus aureus, Klebsiella pneumoniae, Pseudomonas aeruginosa, and Enterobacter cloacae.
# [2] = system: Enterobacter cloacae; assay: Growth inhibition of ESKAPE pathogens; type: cell-based
# Protocol: as §1
# [3] = system: Acinetobacter baumannii; assay: Growth inhibition of Acinetobacter baumannii (CRAB and susceptible strains); type: cell-based; details: for IC50 / MIC: Acinetobacter baumannii
# Protocol: A natural products library was screened for growth inhibition of CRAB. Lead extracts were then tested in serial dilution and nine extracts from seven species were chosen for further study based on activity. Extract 429, made from the leaves of Schinus terebinthifolia, underwent bioassay-guided fractionation for growth inhibition (FIG. 1).
# A library of botanical extracts generated from plants was screened for growth inhibition of CRAB. […] Bioassay-guided fractionation lead to the isolation of pentagalloyl glucose (PGG), a bioactive gallotannin. […] Topical applications of PGG, such as wound rinses and dressings, are contemplated. […]
# [4] = system: A. baumannii AB5075; assay: Restoration assay (iron addition to PGG-treated wells); type: cell-based, Acinetobacter baumannii; details: AB5075, 1 mM iron (II) or iron (III) sulfate on PGG-treated wells, 24-48 h
# Protocol: To test for the restoration of bacterial growth after iron addition, iron (II) and iron (III) sulfate were spread at concentrations of 1 mM on PGG-treated A. baumannii AB5075 wells that had no visible colonies after 24 h of incubation. Immediately after addition of iron to the agar, all wells containing PGG obtained a purple color, increasing in darkness with increasing PGG concentration.
# [5] = system: Candida species; assay: Growth inhibition of a panel of Candida strains; type: cell-based
# Protocol: The activity of PGG was tested for growth inhibition against two susceptible strains and 6 drug resistant strains from three Candida species (Table 2). […] The activity of PGG followed a dose-response curve against tested strains. Typically the strains tested had MICs less than 2 μg/mL. Candida glabrata (AR Bank #0335) yielded the highest MIC at 8 μg/mL.
smiles,measurement,setting,value
"O=C(OC[C@H]1O[C@@H](OC(=O)c2cc(O)c(O)c(O)c2)[C@H](OC(=O)c2cc(O)c(O)c(O)c2)[C@@H](OC(=O)c2cc(O)c(O)c(O)c2)[C@@H]1OC(=O)c1cc(O)c(O)c(O)c1)c1cc(O)c(O)c(O)c1 [PGG, [(2R,3R,4S,5R,6S)-3,4,5,6-tetrakis[(3,4,5-trihydroxybenzoyl)oxy]oxan-2-yl]methyl 3,4,5-trihydroxybenzoate]",IC50,"[1]; strain NR-31915, read-out: PGG IC50",128 µg/mL
same,MIC,"[1]; strain NR-31915, read-out: PGG MIC",> 256 µg/mL
same,MIC,[2]; read-out: PGG MIC,> 256 µg/mL
same,IC50,"[2]; strain AR Bank #0032, read-out: PGG IC50",64 µg/mL
same,growth inhibition compared to PGG isolated from S. terebinthifolia,[3]; A. baumannii,identical growth inhibition
same,inhibition at which dose-response curves level off,"[3]; A. baumannii, high concentrations",85-95%
same,IC50,"[3]; A. baumannii strains tested in this study, read-out: median IC50 for growth inhibition",8 µg/mL
same,MIC,"[3]; A. baumannii, strain not given, read-out: MIC",64 µg/mL
same,IC50,"[3]; ATCC17978, strain ATCC17978, read-out: PGG IC50",8 µg/mL
same,MIC,"[3]; ATCC17978, strain ATCC17978, read-out: PGG MIC",> 256 µg/mL
same,MIC,"[3]; fourteen strains, read-out: MICs of fourteen of the A. baumannii strains tested",> 256 µg/mL
same,IC50,"[3]; read-out: IC50s, range over strains, one susceptible and 23 drug resistant strains (19 CRAB)",8 µg/mL to 64 µg/mL and 8.5 µM to 68 µM
same,IC50,"[3]; strain AB5075, read-out: PGG IC50",16 µg/mL
same,MIC,"[3]; strain AB5075, read-out: PGG MIC",256 µg/mL
same,IC50,"[3]; strain AR Bank #0033, read-out: PGG IC50",8 µg/mL
same,MIC,"[3]; strain AR Bank #0033, read-out: PGG MIC",> 256 µg/mL
same,IC50,"[3]; strain AR Bank #0035, read-out: PGG IC50",8 µg/mL
same,MIC,"[3]; strain AR Bank #0035, read-out: PGG MIC",256 µg/mL
same,IC50,"[3]; strain AR Bank #0036, read-out: PGG IC50",16 µg/mL
same,MIC,"[3]; strain AR Bank #0036, read-out: PGG MIC",> 256 µg/mL
same,IC50,"[3]; strain AR Bank #0037, read-out: PGG IC50",8 µg/mL
same,MIC,"[3]; strain AR Bank #0037, read-out: PGG MIC",> 256 µg/mL
same,IC50,"[3]; strain AR Bank #0045, read-out: PGG IC50",8 µg/mL
same,MIC,"[3]; strain AR Bank #0045, read-out: PGG MIC",128 µg/mL
same,IC50,"[3]; strain AR Bank #0070, read-out: PGG IC50",16 µg/mL
same,MIC,"[3]; strain AR Bank #0070, read-out: PGG MIC",> 256 µg/mL
same,IC50,"[3]; strain AR Bank #0102, read-out: PGG IC50",8 µg/mL
same,MIC,"[3]; strain AR Bank #0102, read-out: PGG MIC",> 256 µg/mL
same,IC50,"[3]; strain AR Bank #0273, read-out: PGG IC50",8 µg/mL
same,MIC,"[3]; strain AR Bank #0273, read-out: PGG MIC",128 µg/mL
same,IC50,"[3]; strain AR Bank #0274, read-out: PGG IC50",64 µg/mL
same,MIC,"[3]; strain AR Bank #0274, read-out: PGG MIC",> 256 µg/mL
same,IC50,"[3]; strain AR Bank #0275, read-out: PGG IC50",8 µg/mL
same,MIC,"[3]; strain AR Bank #0275, read-out: PGG MIC",> 256 µg/mL
same,IC50,"[3]; strain AR Bank #0277, read-out: PGG IC50",8 µg/mL
same,MIC,"[3]; strain AR Bank #0277, read-out: PGG MIC",> 256 µg/mL
same,IC50,"[3]; strain AR Bank #0278, read-out: PGG IC50",8 µg/mL
same,MIC,"[3]; strain AR Bank #0278, read-out: PGG MIC",> 256 µg/mL
same,IC50,"[3]; strain AR Bank #0281, read-out: PGG IC50",8 µg/mL
same,MIC,"[3]; strain AR Bank #0281, read-out: PGG MIC",128 µg/mL
same,IC50,"[3]; strain AR Bank #0282, read-out: PGG IC50",16 µg/mL
same,MIC,"[3]; strain AR Bank #0282, read-out: PGG MIC",> 256 µg/mL
same,IC50,"[3]; strain AR Bank #0283, read-out: PGG IC50",8 µg/mL
same,MIC,"[3]; strain AR Bank #0283, read-out: PGG MIC",> 256 µg/mL
same,IC50,"[3]; strain AR Bank #0284, read-out: PGG IC50",8 µg/mL
same,MIC,"[3]; strain AR Bank #0284, read-out: PGG MIC",64 µg/mL
same,IC50,"[3]; strain AR Bank #0295, read-out: PGG IC50",8 µg/mL
same,MIC,"[3]; strain AR Bank #0295, read-out: PGG MIC",> 256 µg/mL
same,IC50,"[3]; strain AR Bank #0299, read-out: PGG IC50",8 µg/mL
same,MIC,"[3]; strain AR Bank #0299, read-out: PGG MIC",128 µg/mL
same,IC50,"[3]; strain AR Bank #0300, read-out: PGG IC50",8 µg/mL
same,MIC,"[3]; strain AR Bank #0300, read-out: PGG MIC",256 µg/mL
same,IC50,"[3]; strain NR-9667, read-out: PGG IC50",16 µg/mL
same,MIC,"[3]; strain NR-9667, read-out: PGG MIC",256 µg/mL
same,IC50,"[3]; strain Naval-81, read-out: PGG IC50",16 µg/mL
same,MIC,"[3]; strain Naval-81, read-out: PGG MIC",> 256 µg/mL
same,IC50,"[3]; strain OIFC143, read-out: PGG IC50",8 µg/mL
same,MIC,"[3]; strain OIFC143, read-out: PGG MIC",128 µg/mL
same,activity in bioassay-guided fractionation for growth inhibition,"[3]; CRAB, fractions of extract 429",most active constituent
same,PGG MIC,[3]; strain ATCC17978,>256 µg/mL
same,restoration of bacterial growth after iron addition,[4],can be attenuated by addition of iron
same,MIC,"[5]; Candida strains tested, read-out: MICs typical of the strains tested",< 2 µg/mL
same,IC50,"[5]; two susceptible and 6 drug resistant strains from three Candida species, read-out: IC50 values, range over strains",0.25 µg/mL to 2 µg/mL and 260 nM to 2.1 µM
